The text below walks through data of patent publication US20050043379A1, “LTA4H Modulators” (priority 2003, published 2005).

Molecules are shown by their SMILES. Structures can show the parent of a compound that is named as a salt.

The first assay has as its system ionophore-induced LTB4 production.
Test: not given
The following applies: oral administration; cited from earlier work.
For `CN(CCCOc1ccc(Cc2ccccc2)cc1)CCC(=O)O.Cl` [SC57461], the “inhibition of ionophore-induced LTB4 production in mouse blood ex vivo” value was “caused inhibition of ionophore-induced LTB4 production”.

The next assay has as its system colitis symptoms.
Test: not given
To be noted: eight weeks of treatment; cited from earlier work.
Consider `CN(CCCOc1ccc(Cc2ccccc2)cc1)CCC(=O)O.Cl` [SC57461], for which the colitis symptoms result was “significantly improved colitis symptoms”.

A further assay deals with ionophore-induced LTB4 production.
Test: not given
To be noted: oral administration; cited from earlier work. This is another data set of the same source.
As for `CN(CCCOc1ccc(Cc2ccccc2)cc1)CCC(=O)O.Cl` [SC57461], the “inhibition of ionophore-induced LTB4 production in rat peritoneum in vivo” value is reported as “caused inhibition of ionophore-induced LTB4 production”.

For a further assay, the system named is neutrophil influx (myeloperoxidase activity) in arachidonic acid-treated ear. The experiment in a line: Murine arachidonic acid-induced inflammation model: neutrophil influx by myeloperoxidase (MPO) activity in ear biopsies. It counts as in vivo, mouse (female Balb/c). The following applies: Mus musculus, TABLE 7, 30 mg/kg oral gavage, ear biopsies 3 h after topical arachidonic acid (given 60 min after dose), read-out: % Inh. MPO. On the procedure:
Murine Arachidonic Acid-induced Inflammation Model LTA4H inhibitor compounds of the present invention were dissolved in 20% cyclodextran/H2O at a concentration of 3 mg/mL. The solutions were administered by oral gavage to female Balb/c mice weighing approximately 20 grams each (0.2 mL per mouse, 30 mg of LTA4H inhibitor compound per kg). Sixty minutes after being administered an LTA4 inhibitor, each mouse received topical application of 20 μL of arachidonic acid (100 mg/mL in acetone) to the left ear and 20 μL of acetone only to the right ear. After 3 h, the mice were sacrificed, blood was withdrawn in heparinized syringes, and 8 mm ear biopsies were taken. Ear biopsies were weighed to determine edema and then frozen at -80° C. until needed for determination of neutrophil influx. Neutrophil influx was quantified by measuring the activity of myeloperoxidase (MPO), a neutrophil-specific enzyme. […] Debris was removed by centrifugation at 14000×g for 10 min. […] The microtiter plate contents were held at room temperature for 1 h. The reaction was stopped by addition of 100 μ[…] H2SO4 to each sample well, and the myeloperoxidase activity in each sample was determined from the absorbance at 405 nm. The background value from the right ear, treated only with acetone, was subtracted from that for the left ear, treated with arachidonic acid in acetone, for each animal. The percent inhibition of neutrophil influx (% Inh. MPO) by compounds of the invention was determined by comparison to animals treated identically, except that the solution administered by oral gavage was devoid of inhibitor compound.
As to `OC1(c2ccccc2)CCN(CCCOc2ccc(Oc3nc4ccccc4o3)cc2)CC1` [Example 27, 1-{3-[4-(Benzooxazol-2-yloxy)-phenoxy]-propyl}-4-phenyl-piperidin-4-ol], the inhibition at 30 mg/kg was 72%.
Still for that read-out and setting: in the case of `c1ccc2oc(Oc3ccc(OCCN4CCCCC4)cc3)nc2c1` [Example 11, 2-[4-(2-Piperidin-1-yl-ethoxy)-phenoxy]-benzooxazole] it was 95%; in that of `OC1CCN(CCOc2ccc(Oc3nc4ccccc4o3)cc2)CC1` [Example 14, 1-{2-[4-(Benzooxazol-2-yloxy)-phenoxy]-ethyl}-piperidin-4-ol], 56%.

Staying with this assay, now noted: Mus musculus, TABLE 8, 30 mg/kg oral gavage, ear biopsies 3 h after topical arachidonic acid (given 60 min after dose), read-out: % Inh. MPO.
For `NC(=O)C1CCN(Cc2ccc(Oc3nc4ccccc4s3)cc2)CC1` [Example 274, 1-[4-(Benzothiazol-2-yloxy)-benzyl]-piperidine-4-carboxylic acid amide], the inhibition at 30 mg/kg amounted to 87%.
Take `O=C(O)C1CCN(Cc2ccc(Oc3nc4ccccc4s3)cc2)CC1` [Example 250, 1-[4-(Benzothiazol-2-yloxy)-benzyl]-piperidine-4-carboxylic acid]: the inhibition at 30 mg/kg was found to be 94%.
The same measure, in the same setting: the value for `O=C1C[C@H](O)CN1C1CCN(CCc2ccc(Oc3nc4ccccc4s3)cc2)CC1` [Example 336, (S)-1-(1-{2-[4-(Benzothiazol-2-yloxy)-phenyl]-ethyl}-piperidin-4-yl)-4-hydroxy-pyrrolidin-2-one] was 0%; that for `O=C(O)C1CCCN(CCc2ccc(Oc3nc4ccccc4s3)cc2)C1` (stereo not drawn) [Example 155, 1-{2-[4-(Benzothiazol-2-yloxy)-phenyl]-ethyl}-piperidine-3-carboxylic acid] was 93%; that for `O=C(CO)N1CCN(CCc2ccc(Oc3nc4ccccc4s3)cc2)CC1` [Example 325, 1-(4-{2-[4-(Benzothiazol-2-yloxy)-phenyl]-ethyl}-piperazin-1-yl)-2-hydroxy-ethanone] was 67%.
As to `O=C1C[C@@H](O)CN1C1CCN(Cc2ccc(Oc3nc4ccccc4s3)cc2)CC1` [Example 446, 1-{1-[4-(Benzothiazol-2-yloxy)-benzyl]-piperidin-4-yl}-4-hydroxy-pyrrolidin-2-one], the inhibition at 30 mg/kg worked out at 43%.
Turning to `O=C(O)C1CCN(CCc2ccc(Oc3nc4ccccc4s3)cc2)CC1` [Example 150, 1-{2-[4-(Benzothiazol-2-yloxy)-phenyl]-ethyl}-piperidine-4-carboxylic acid], the inhibition at 30 mg/kg worked out at 91%.
Turning to `CS(=O)(=O)NC1CCN(Cc2ccc(Oc3nc4ccccc4s3)cc2)CC1` [Example 361, N-{1-[4-(Benzothiazol-2-yloxy)-benzyl]-piperidin-4-yl}-methanesulfonamide], the inhibition at 30 mg/kg came to 90%.
As for `O=C1C[C@H](O)CN1C1CCN(Cc2ccc(Oc3nc4ccccc4s3)cc2)CC1` [Example 447, 1-{1-[4-(Benzothiazol-2-yloxy)-benzyl]-piperidin-4-yl}-4-hydroxy-pyrrolidin-2-one], the inhibition at 30 mg/kg was found to be 48%.
For the compound `c1ccc2sc(Oc3ccc(OCCn4nnnc4C4CCNCC4)cc3)nc2c1` [Example 206, 2-{4-[2-(5-Piperidin-4-yl-tetrazol-1-yl)-ethoxy]-phenoxy}-benzothiazole], the inhibition at 30 mg/kg came out at 76%.
On the same count and under the same terms, in the case of `OCC1CCCCN1CCOc1ccc(Oc2nc3ccccc3s2)cc1` (stereo not drawn) [Example 263, (1-{2-[4-(Benzothiazol-2-yloxy)-phenoxy]-ethyl}-piperidin-2-yl)-methanol] it was 19%.

Still in this assay, the particulars now being: Mus musculus, po, read-out: % Inh. MPO.
Turning to `O=C(O)C1CCN(CCOc2ccc(Oc3nc4ccccc4s3)cc2)CC1` [Example 18, 1-{2-[4-(Benzothiazol-2-yloxy)-phenoxy]-ethyl}-piperidine-4-carboxylic acid potassium salt], the inhibition at 30 mg/kg amounted to 83%.
